Broadly, the IC50 is the midpoint of a concentration-inhibition curve. Low readings indicate higher potency, high ones lower potency.

Among the data in patent publication US11046691B1 (IDEAYA BIOSCIENCES, INC., priority 2018, dated 2021) are IC50 values, retold here.

Structures are written as SMILES.

Sequence of hMAT2A (P31153 whole entry): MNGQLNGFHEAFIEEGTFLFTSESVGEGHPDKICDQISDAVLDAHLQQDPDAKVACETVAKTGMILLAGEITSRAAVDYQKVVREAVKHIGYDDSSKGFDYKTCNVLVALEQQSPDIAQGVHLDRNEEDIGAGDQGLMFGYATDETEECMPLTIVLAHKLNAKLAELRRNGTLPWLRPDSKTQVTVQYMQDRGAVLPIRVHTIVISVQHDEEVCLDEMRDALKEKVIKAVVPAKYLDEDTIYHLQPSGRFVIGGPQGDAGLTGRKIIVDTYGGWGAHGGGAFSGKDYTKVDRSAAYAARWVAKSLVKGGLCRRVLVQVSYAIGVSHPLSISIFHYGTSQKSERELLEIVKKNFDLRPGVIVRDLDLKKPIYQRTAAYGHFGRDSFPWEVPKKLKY

The first test deals with hMAT2A (Homo sapiens (Human), UniProt P31153). Kind of test: Phosphate Sensor Fluorescence Assay (MAT2A enzyme inhibition). The settings on record: L-methionine 500 uM, ATP 500 uM, class symbols. It counts as biochemical. Summed up:
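Recombinant MAT2A preincubated 15 min at room temperature with compound, then reacted 1 h at room temperature with 500 uM L-methionine and 500 uM ATP in Tris pH 7.5 buffer containing PNP/7-MEG.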
Molecule `[2H]C([2H])([2H])Nc1nc(=O)n(-c2ccccc2Br)c2cc(Cl)ccc12` [Example 368, 1-(2-bromophenyl)-7-chloro-4-((methyl-d3)amino)quinazolin-2(1H)-one] came in with an IC50 of less than 200 nM.

Regarding `[2H]C([2H])([2H])Nc1nc(=O)n(-c2ccccc2)c2cc(C(F)(F)F)ccc12` [Example 369, 4-((methyl-d3)amino)-1-phenyl-7-(trifluoromethyl)quinazolin-2(1H)-one], the IC50 is less than 200 nM.

`CNc1nc(=O)n(-c2ncccc2Cl)c2cc(Cl)ccc12` [Example 370, 7-chloro-1-(3-chloro(2-pyridyl))-4-(methylamino)hydroquinazolin-2-one] gave an IC50 of less than 200 nM.

In turn, `CNc1nc(=O)n(-c2ncccc2C)c2cc(Cl)ccc12` [Example 371] came in with an IC50 of less than 200 nM.

`O=c1nc(N2CC(O)C2)c2ccc(C3CC3)cc2n1-c1ccccc1` [Example 372, 7-cyclopropyl-4-(3-hydroxyazetidin-1-yl)-1-phenylhydroquinazolin-2-one] displayed an IC50 of less than 200 nM.

For `O=c1nc(NCC(F)F)c2ccc(C3CC3)cc2n1-c1ccccc1` [Example 373], the IC50 was less than 200 nM.

Molecule `O=c1nc(N2CC[C@@H](O)C2)c2ccc(C3CC3)cc2n1-c1ccccc1` [Example 374, 4-((3R)-3-hydroxypyrrolidinyl)-7-cyclopropyl-1-phenylhydroquazolin-2-one] gave an IC50 of less than 200 nM.

On to `CNc1nc(=O)n(-c2cnccc2C)c2nc(C(F)(F)F)ccc12` [Example 376], for which the half-maximal inhibitory concentration (IC50) is less than 200 nM.

`CNc1nc(=O)n(-c2cnccc2Cl)c2nc(C(F)(F)F)ccc12` [Example 377, 1-(4-chloropyridin-3-yl)-4-(methyl-amino)-7-(trifluoromethyl)pyrido[2,3-d]pyrimidin-2(1H)-one]: the concentration for half-maximal inhibition (IC50) was less than 200 nM.

Molecule `CNc1nc(=O)n(-c2cccnc2)c2nc(C(F)(F)F)ccc12` [Example 378, 4-(methylamino)-1-(pyridin-3-yl)-7-(trifluoromethyl)pyrido[2,3-d]pyrimidin-2(1H)-one] yielded an IC50 of less than 200 nM.

For the molecule `[2H]C([2H])([2H])Nc1nc(=O)n(-c2ccccc2Cl)c2nc(C(F)(F)F)ccc12` [Example 379, 1-(2-chlorophenyl)-4-((methyl-d3)-amino)-7-(trifluoromethyl)pyrido[2,3-d]pyrimidin-2(1H)-one], the IC50 was less than 200 nM.

With `CNc1nc(=O)n(-c2cccnc2C)c2nc(C(F)(F)F)ccc12` [Example 380, 4-(methylamino)-1-(2-methylpyridin-3-yl)-7-(trifluoromethyl)pyrido[2,3-d]-pyrimidin-2(1H)-one], the half-maximal inhibitory concentration (IC50) was less than 200 nM.

Take `CNc1nc(=O)n(-c2cccc3ncsc23)c2nc(C(F)(F)F)ccc12` [Example 381, 1-benzothiazol-7-yl-4-(methylamino)-7-(trifluoromethyl)pyrido[2,3-d]pyrimidin-2(1H)-one]: the IC50 was less than 200 nM.

Turning to `Nc1nc(=O)n(-c2ccccc2)c2cc(Cl)cc(Cl)c12` [Example 383, 4-amino-5,7-dichloro-1-phenyl-hydroquinazolin-2-one], the half-inhibitory concentration (IC50) lay in the range of 500 to 1000 nM.

`Cc1ccc2c(N3CC(O)C3)nc(=O)n(-c3ccccc3)c2n1` [Example 384, 4-(3-hydroxyazetidin-1-yl)-7-methyl-1-phenylpyrido[2,3-d]pyrimidin-2(1H)-one]: the IC50 was less than 200 nM.

`O=c1nc(NCC(F)(F)F)c2ccc(C3CC3)cc2n1-c1ccccc1` [Example 385, 7-cyclopropyl-1-phenyl-4-[(2,2,2-trifluoroethyl)amino]hydroquinazolin-2-one] came in with a half-inhibitory concentration (IC50) of less than 200 nM.

`O=c1nc(N2CCCC2)c2ccc(C3CC3)cc2n1-c1ccccc1` [Example 386, 7-cyclopropyl-1-phenyl-4-pyrrolidin-1-ylhydroquinazolin-2-one] gave a half-maximal inhibitory concentration (IC50) of less than 200 nM.

Take `Nc1nc(=O)n(-c2ccccc2)c2cc(Cl)cc(-n3cccn3)c12` [Example 387, 4-amino-7-chloro-1-phenyl-5-pyrazol-1-ylhydroquinazolin-2-one]: the IC50 lay within 1000 to 10000 nM.

With `O=c1[nH]c(=O)n(-c2ccccc2Cl)c2nc(C(F)(F)F)ccc12` [Example 388, 1-(2-chlorophenyl)-7-(trifluoromethyl)-1,3-dihydropyridino[2,3-d]pyrimidine-2,4-dione], the IC50 was less than 200 nM.

Molecule `O=c1nc(NCC(F)(F)F)c2ccc(C(F)(F)F)nc2n1-c1ccccc1Cl` [Example 389, 1-(2-chlorophenyl)-4-[(2,2,2-trifluoro-ethyl)amino]-7-(trifluoro-methyl)-pyrido[2,3-d]pyrimidin-2(1H)-one] came in with a 50% inhibitory concentration (IC50) of less than 200 nM.

In turn, `CNc1nc(=O)n(-c2cncc(O)c2)c2nc(C(F)(F)F)ccc12` [Example 390, 1-(5-hydroxypyridin-3-yl)-4-(methyl-amino)-7-(trifluoromethyl)pyrido[2,3-d]-pyrimidin-2(1H)-one] showed a half-inhibitory concentration (IC50) of less than 200 nM.

In turn, `CNc1nc(=O)n(-c2ccnc(O)c2)c2nc(C(F)(F)F)ccc12` [Example 391, 1-(2-hydroxypyridin-4-yl)-4-(methyl-amino)-7-(trifluoromethyl)-pyrido[2,3-d]pyrimidin-2(1H)-one] returned a half-inhibitory concentration (IC50) of less than 200 nM.

Take `C#Cc1ccc2c(NC)nc(=O)n(-c3ccccc3)c2c1` [Example 394, 7-ethynyl-4-(methylamino)-1-phenyl-hydroquinazolin-2-one]: the IC50 was less than 200 nM.

For `O=c1nc(N2CC[C@@H](O)C2)c2ccc(C(F)(F)F)cc2n1-c1ccccc1Cl` [Example 395, 4-((3R)-3-hydroxypyrrolidin-1-yl)-1-(2-chlorophenyl)-7-(trifluoromethyl)hydro-quinazolin-2-one], the IC50 is less than 200 nM.

The molecule `COc1nc(=O)n(-c2ccccc2)c2nc(C)ccc12` [Example 396, 4-methoxy-7-methyl-1-phenylpyrido-[2,3-d]pyrimidin-2(1H)-one] returned a half-maximal inhibitory concentration (IC50) of 200 to 500 nM.

As for `Cc1ccc2c(NCC(F)(F)F)nc(=O)n(-c3ccccc3)c2n1` [Example 397, 7-methyl-1-phenyl-4-[(2,2,2-trifluoro-ethyl)amino]pyrido[2,3-d]pyrimidin-2(1H)-one], the IC50 was less than 200 nM.

Consider `Cc1ccc2c(NCC(F)F)nc(=O)n(-c3ccccc3)c2n1` [Example 398, 4-[(2,2-difluoroethyl)amino]-7-methyl-1-phenylpyrido[2,3-d]pyrimidin-2(1H)-one], for which the IC50 is less than 200 nM.

`COc1nc(=O)n(-c2ccccc2)c2cc(C3CC3)ccc12` [Example 399, 7-cyclopropyl-4-methoxy-1-phenyl-hydroquinazolin-2-one] returned an IC50 of less than 200 nM.

Consider `Nc1nc(=O)n(-c2ccccc2)c2cc(C3CC3)ccc12` [Example 400, 4-amino-7-cyclopropyl-1-phenylhydro-quinazolin-2-one], for which the IC50 is less than 200 nM.

`CNc1nc(=O)n(-c2cccc(Br)c2)c2cc(Cl)ccc12` [Example 401, 1-(3-bromophenyl)-7-chloro-4-(methylamino)hydroquinazolin-2-one] showed a half-inhibitory concentration (IC50) of 200 to 500 nM.

The molecule `CNc1nc(=O)n(-c2ccccc2)c2cc(Cl)cc(OCCN)c12` [Example 402, 5-(2-aminoethoxy)-7-chloro-4-(methyl-amino)-1-phenylhydroquinazolin-2-one] came in with an IC50 of 500 to 1000 nM.

Take `CS(=O)(=O)CCNc1nc(=O)n(-c2ccccc2Cl)c2cc(C3CC3)c(C#N)cc12` [Example 403, 1-(2-chlorophenyl)-7-cyclopropyl-4-((2-(methylsulfonyl)ethyl)amino)-2-oxo-1,2-dihydroquinazoline-6-carbonitrile]: the IC50 was in the range of 1000 to 10000 nM.

The molecule `COc1nc(=O)n(-c2cccnc2C)c2cc(C(F)(F)F)ccc12` [Example 405] displayed an IC50 of less than 200 nM.

In turn, `CNc1nc(=O)n(-c2ccccc2Cl)c2cc(C3CC3)cc(OC(F)F)c12` [Example 406, 5-(difluoromethoxy)-1-(2-chlorophenyl)-7-cyclopropyl-4-(methylamino)hydro-quinazolin-2-one] came in with a half-maximal inhibitory concentration (IC50) of 200 to 500 nM.

In turn, `COc1cc(C2CC2)cc2c1c(NCC1(F)CC1)nc(=O)n2-c1ccccc1Cl` [Example 407, 1-(2-chlorophenyl)-7-cyclopropyl-4-{[(fluorocyclopropyl)methyl]amino}-5-methoxyhydroquinazolin-2-one] had an IC50 of less than 200 nM.

Take `N#Cc1cc2c(NCC3CCO3)nc(=O)n(-c3ccccc3Cl)c2cc1C1CC1` (stereo not shown) [Example 408, 1-(2-chlorophenyl)-7-cyclopropyl-4-((oxetan-2-ylmethyl)amino)-2-oxo-1,2-dihydroquinazoline-6-carbonitrile]: the IC50 fell in the range of 500 to 1000 nM.

Turning to `N#Cc1cc2c(NCC3CC3)nc(=O)n(-c3ccccc3Cl)c2cc1C1CC1` [Example 409, 1-(2-chlorophenyl)-7-cyclopropyl-4-((cyclopropylmethyl)amino)-2-oxo-1,2-dihydroquinazoline-6-carbonitrile], the IC50 was less than 200 nM.

Consider `CCc1cc(C2CC2)cc2c1c(NC)nc(=O)n2-c1ccccc1C` [Example 410, 7-cyclopropyl-5-ethyl-4-(methylamino)-1-(2-methylphenyl)hydroquinazolin-2-one], for which the half-inhibitory concentration (IC50) is less than 200 nM.

As for `O=c1nc(NCC2CC2)c2cc(Cl)c(C3CC3)cc2n1-c1ccccc1Cl` [Example 411], the 50% inhibitory concentration (IC50) was less than 200 nM.

Consider `O=c1nc(Nc2cnoc2)c2cc(Cl)c(Br)cc2n1-c1ccccc1Cl` [Example 412, 7-bromo-6-chloro-1-(2-chlorophenyl)-4-(isoxazol-4-ylamino)hydroquinazolin-2-one], for which the 50% inhibitory concentration (IC50) was less than 200 nM.

Staying with this test, now noted: L-methionine 500 uM, ATP 500 uM, numeric bound.
For `Cc1ccccc1-n1c(=O)[nH]c(=O)c2ccc(C3CC3)cc21` [Example 375, 7-cyclopropyl-1-(o-tolyl)quinazoline-2,4(1H,3H)-dione], the IC50 was more than 10000 nM.

As for `CCC(C)c1ccc2c(NC)nc(=O)n(-c3ccccc3)c2c1` (stereo not shown) [Example 382, 4-(methylamino)-7-(methylpropyl)-1-phenylhydroquinazolin-2-one], the IC50 is more than 10000 nM.

`CNc1nc(=O)n(-c2cnccc2O)c2nc(C(F)(F)F)ccc12` [Example 392, 1-(4-hydroxypyridin-3-yl)-4-(methyl-amino)-7-(trifluoromethyl)pyrido[2,3-d]-pyrimidin-2(1H)-one] yielded an IC50 of more than 10000 nM.
